According to patent publication US20140350111A1, “METHODS FOR TREATMENT AND PROPHYLAXIS AGAINST HEMORRHOIDS” (priority 2011, published 2014):
Like-named read-outs stand apart in the source and are kept apart here.

What was measured:
[1] = three individuals; 660 mg at first noticeable symptom, then 440 mg three times daily at six-hour intervals
Description: After completing treatment in Example 1, three of the individuals at risk for hemorrhoids were treated at the onset of hemorrhoid symptoms to determine whether naproxen could halt or reverse the progression of the hemorrhoid symptoms.

[2] = one individual; 220 mg every day

COc1ccc2cc([C@H](C)C(=O)O)ccc2c1 [naproxen sodium]
progression of emerging hemorrhoid symptoms [1]: symptoms did not worsen | time to complete disappearance of all symptoms of hemorrhoids from commencement of treatment [1]: 12 to 24 h | occurrence of emerging hemorrhoid symptoms under prophylaxis [2]: has not experienced any emerging hemorrhoid symptoms | hemorrhoid symptoms after treatment, as reported by individuals (440 mg three times daily at six-hour intervals, the one remaining individual): significant improvement in symptoms | hemorrhoid symptoms after treatment, as reported by individuals (five individuals, 440 mg three times daily at six-hour intervals until symptoms abated, all treated individuals except one): complete lack of hemorrhoid symptoms after treatment
